Data published in ChEMBL document CHEMBL1137109, “Structure-based virtual screening and biological evaluation of potent and selective ADAM12 inhibitors” (Bioorg Med Chem Lett, 2004).

Tests used:
[1] = target: T1, Disintegrin and metalloproteinase domain-containing protein 12 (Homo sapiens, UniProt O43184); assay: Inhibition of A disintegrin and metalloprotease domain 12 (ADAM12) binding in cell based assay
T1 sequence (O43184 whole entry): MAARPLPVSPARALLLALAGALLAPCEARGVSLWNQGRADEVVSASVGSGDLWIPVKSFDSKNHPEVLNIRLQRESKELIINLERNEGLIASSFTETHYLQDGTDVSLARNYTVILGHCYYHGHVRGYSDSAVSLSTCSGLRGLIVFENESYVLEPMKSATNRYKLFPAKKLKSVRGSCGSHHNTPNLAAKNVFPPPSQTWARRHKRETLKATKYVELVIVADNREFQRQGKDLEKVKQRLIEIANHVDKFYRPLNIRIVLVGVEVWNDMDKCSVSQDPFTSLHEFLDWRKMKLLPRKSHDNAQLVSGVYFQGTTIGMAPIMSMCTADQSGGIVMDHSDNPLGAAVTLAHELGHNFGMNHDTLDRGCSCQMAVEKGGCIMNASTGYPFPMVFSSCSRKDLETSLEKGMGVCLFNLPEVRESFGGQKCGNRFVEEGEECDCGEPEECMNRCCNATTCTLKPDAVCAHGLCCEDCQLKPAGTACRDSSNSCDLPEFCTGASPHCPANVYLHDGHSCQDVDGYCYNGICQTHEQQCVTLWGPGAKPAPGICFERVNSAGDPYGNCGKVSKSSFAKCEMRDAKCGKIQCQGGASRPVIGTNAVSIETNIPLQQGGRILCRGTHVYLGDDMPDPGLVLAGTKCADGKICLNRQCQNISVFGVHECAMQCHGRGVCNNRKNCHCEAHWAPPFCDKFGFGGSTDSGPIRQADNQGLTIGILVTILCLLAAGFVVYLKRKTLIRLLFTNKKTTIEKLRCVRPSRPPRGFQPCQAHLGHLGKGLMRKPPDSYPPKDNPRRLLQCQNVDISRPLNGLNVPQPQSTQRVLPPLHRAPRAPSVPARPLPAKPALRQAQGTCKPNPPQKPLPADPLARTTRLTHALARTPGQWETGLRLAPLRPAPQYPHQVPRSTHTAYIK

[2] = target: T2, Disintegrin and metalloproteinase domain-containing protein 10 (Homo sapiens, UniProt O14672); assay: In vitro inhibition of A disintegrin and metalloprotease domain 10 (ADAM10)
T2 sequence (O14672 whole entry): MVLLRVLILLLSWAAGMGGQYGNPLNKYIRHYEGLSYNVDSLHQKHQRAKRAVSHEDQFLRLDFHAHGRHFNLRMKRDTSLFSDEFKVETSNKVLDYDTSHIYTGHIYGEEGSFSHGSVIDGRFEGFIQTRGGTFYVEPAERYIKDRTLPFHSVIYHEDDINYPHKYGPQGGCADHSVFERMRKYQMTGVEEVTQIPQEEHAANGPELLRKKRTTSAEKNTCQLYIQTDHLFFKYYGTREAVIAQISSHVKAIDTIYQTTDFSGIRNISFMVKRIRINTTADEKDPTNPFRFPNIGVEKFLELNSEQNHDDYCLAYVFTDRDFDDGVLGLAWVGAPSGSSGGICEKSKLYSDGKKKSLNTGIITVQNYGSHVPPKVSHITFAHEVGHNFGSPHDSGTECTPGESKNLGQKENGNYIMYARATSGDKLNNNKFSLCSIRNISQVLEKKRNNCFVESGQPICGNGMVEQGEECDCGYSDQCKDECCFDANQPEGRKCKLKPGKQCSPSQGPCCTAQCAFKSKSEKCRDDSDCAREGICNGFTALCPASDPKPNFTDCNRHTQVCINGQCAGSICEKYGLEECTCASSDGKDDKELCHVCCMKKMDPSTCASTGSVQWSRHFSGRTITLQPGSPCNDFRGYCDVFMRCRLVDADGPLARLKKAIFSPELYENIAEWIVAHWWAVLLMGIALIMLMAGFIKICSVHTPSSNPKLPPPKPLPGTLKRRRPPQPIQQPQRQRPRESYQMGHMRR

[3] = target: T3, Disintegrin and metalloproteinase domain-containing protein 9 (Homo sapiens, UniProt Q13443); assay: In vitro inhibition of A disintegrin and metalloprotease domain 9 (ADAM9)
T3 sequence (Q13443 whole entry): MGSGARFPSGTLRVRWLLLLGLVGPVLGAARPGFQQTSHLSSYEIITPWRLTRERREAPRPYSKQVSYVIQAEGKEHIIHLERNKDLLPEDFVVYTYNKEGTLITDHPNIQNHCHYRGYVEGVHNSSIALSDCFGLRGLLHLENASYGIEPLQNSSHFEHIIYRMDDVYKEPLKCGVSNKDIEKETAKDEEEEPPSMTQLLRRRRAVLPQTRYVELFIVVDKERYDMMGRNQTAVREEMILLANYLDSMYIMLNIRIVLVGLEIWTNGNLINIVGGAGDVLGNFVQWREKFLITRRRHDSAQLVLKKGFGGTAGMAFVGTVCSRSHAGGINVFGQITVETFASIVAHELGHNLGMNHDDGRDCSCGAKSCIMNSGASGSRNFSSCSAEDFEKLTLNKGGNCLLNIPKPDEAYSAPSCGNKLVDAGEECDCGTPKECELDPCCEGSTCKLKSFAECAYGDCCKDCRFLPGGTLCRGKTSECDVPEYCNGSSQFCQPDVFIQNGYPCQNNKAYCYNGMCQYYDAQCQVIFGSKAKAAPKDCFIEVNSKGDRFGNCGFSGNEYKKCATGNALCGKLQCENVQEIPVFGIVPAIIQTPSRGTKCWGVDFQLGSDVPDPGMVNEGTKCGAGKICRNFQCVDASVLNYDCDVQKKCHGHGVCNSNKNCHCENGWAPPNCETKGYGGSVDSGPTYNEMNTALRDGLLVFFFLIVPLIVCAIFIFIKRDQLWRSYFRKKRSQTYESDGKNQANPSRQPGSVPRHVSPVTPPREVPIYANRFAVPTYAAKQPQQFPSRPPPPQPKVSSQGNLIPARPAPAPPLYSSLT

[4] = target: Disintegrin and metalloproteinase domain-containing protein 17 (Homo sapiens, UniProt P78536); assay: In vitro inhibition of A disintegrin and metalloprotease domain 17 (ADAM17, TACE)
Chain of Disintegrin and metalloproteinase domain-containing protein 17 (P78536 whole entry, the tested form may be a part): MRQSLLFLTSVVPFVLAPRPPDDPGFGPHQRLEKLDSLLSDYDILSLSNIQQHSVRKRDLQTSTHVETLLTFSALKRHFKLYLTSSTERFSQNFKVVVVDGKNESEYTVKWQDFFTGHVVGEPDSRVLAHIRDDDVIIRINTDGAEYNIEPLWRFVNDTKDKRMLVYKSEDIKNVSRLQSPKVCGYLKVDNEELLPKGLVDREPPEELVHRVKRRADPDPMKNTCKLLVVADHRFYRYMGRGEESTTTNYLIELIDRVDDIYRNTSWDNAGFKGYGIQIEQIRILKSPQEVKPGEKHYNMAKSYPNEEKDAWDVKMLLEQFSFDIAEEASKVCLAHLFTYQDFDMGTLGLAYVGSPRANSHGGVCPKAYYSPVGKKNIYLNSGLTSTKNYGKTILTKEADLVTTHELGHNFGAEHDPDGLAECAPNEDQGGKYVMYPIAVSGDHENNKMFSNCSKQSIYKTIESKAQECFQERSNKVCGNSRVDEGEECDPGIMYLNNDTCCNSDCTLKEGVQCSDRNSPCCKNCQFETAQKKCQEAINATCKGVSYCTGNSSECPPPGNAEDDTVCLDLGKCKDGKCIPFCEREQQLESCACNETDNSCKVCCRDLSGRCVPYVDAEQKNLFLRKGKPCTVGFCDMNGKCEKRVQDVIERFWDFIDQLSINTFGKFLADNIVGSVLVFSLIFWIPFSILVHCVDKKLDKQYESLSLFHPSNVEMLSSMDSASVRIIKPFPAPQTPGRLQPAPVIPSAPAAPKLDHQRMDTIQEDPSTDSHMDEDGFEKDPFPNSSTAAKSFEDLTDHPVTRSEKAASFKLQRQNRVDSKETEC

SMILES | IC50 [1] | IC50 [2] | IC50 [3] | IC50 [4]
CC(NC(=O)/C(=C\c1ccco1)NC(=O)c1ccco1)C(=O)O (stereo unspecified) | 42.3 nM | 10500 nM |  | 
O=C(O)CNC(=O)/C(=C\c1cccc(Br)c1)NC(=O)c1ccco1 | 16.7 nM | > 10500 nM |  | 
CC(C)C(NC(=O)/C(=C\c1ccccc1F)NC(=O)c1ccccc1)C(=O)O (stereo unspecified) | 40.5 nM | > 10500 nM |  | 
CC(NC(=O)/C(=C\c1ccc(Br)cc1)NC(=O)c1ccc(Br)o1)C(=O)O (stereo unspecified) | 24.8 nM |  |  | 
CNC(=O)[C@H](Cc1c[nH]c2ccccc12)NC(=O)[C@@H](CC(=O)NO)CC(C)C [ILOMASTAT] | 5.93 nM | 8.1 nM | 1 nM | 7.5 nM
